Source: ChEMBL document CHEMBL1201862, “PubChem BioAssay data set” (2004)
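The compound was tested at five concentrations on cells cultured in 96-well plates, with a 48-hour exposure period. Abbreviation: GI50, concentration required for 50% inhibition of growth.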 The source made the active and inactive calls. Rule as the data show it: active = GI50 up to about 1.1 µM and inactive = higher.

Legend:
Assay in all cases: inhibition of tumour cell growth, NCI panel, 48 h
[1] = tested on: SN12C
[2] = tested on: MOLT-4
[3] = tested on: SR
[4] = tested on: A549
[5] = tested on: HT-29
[6] = tested on: HOP-62
[7] = tested on: CAKI-1
[8] = tested on: SK-MEL-28
[9] = tested on: COLO 205
[10] = tested on: HL-60
[11] = tested on: SF-539
[12] = tested on: Malme-3M
[13] = tested on: RPMI-8226
[14] = tested on: OVCAR-8
[15] = tested on: T47D
[16] = tested on: NCI-H522
[17] = tested on: SNB-19
[18] = tested on: NCI-H226
[19] = tested on: UO-31
[20] = tested on: RXF 393

Structure (SMILES) | GI50 [1] | GI50 [2] | GI50 [3] | GI50 [4] | GI50 [5] | GI50 [6] | GI50 [7] | GI50 [8] | GI50 [9] | GI50 [10] | GI50 [11] | GI50 [12] | GI50 [13] | GI50 [14] | GI50 [15] | GI50 [16] | GI50 [17] | GI50 [18] | GI50 [19] | GI50 [20]
O=C(CC(O)(C(F)(F)F)C(F)(F)F)c1cccs1 | > 10 µM (inactive) | > 10 µM (inactive) | > 10 µM (inactive) | > 10 µM (inactive) | > 10 µM (inactive) | > 10 µM (inactive) | > 10 µM (inactive) | > 10 µM (inactive) | > 10 µM (inactive) | > 10 µM (inactive) | > 10 µM (inactive) | > 10 µM (inactive) | > 10 µM (inactive) | > 10 µM (inactive) | > 10 µM (inactive) | > 10 µM (inactive) | > 10 µM (inactive) | – | – | –
C=C(CCOC)CCC1CCCCC(=C)[C@H]1O (stereo not given in full) | > 100 µM (inactive) | > 100 µM (inactive) | > 100 µM (inactive) | > 100 µM (inactive) | > 100 µM (inactive) | > 100 µM (inactive) | > 100 µM (inactive) | > 100 µM (inactive) | > 100 µM (inactive) | > 100 µM (inactive) | – | – | > 100 µM (inactive) | > 100 µM (inactive) | > 100 µM (inactive) | > 100 µM (inactive) | > 100 µM (inactive) | > 100 µM (inactive) | > 100 µM (inactive) | –
CC1=C(O)C(=O)C2=C(C1=O)[C@@H]([C@@H](C)C/C=C/C(C)(C)O)CC[C@@H]2C | 87.1 µM (inactive) | 35.9 µM (inactive) | 35.3 µM (inactive) | 53.5 µM (inactive) | 69.3 µM (inactive) | > 100 µM (inactive) | 37.9 µM (inactive) | – | > 100 µM (inactive) | 33.4 µM (inactive) | > 100 µM (inactive) | – | 23.5 µM (inactive) | 78.9 µM (inactive) | 27.2 µM (inactive) | 21.3 µM (inactive) | 83.6 µM (inactive) | 74.5 µM (inactive) | 62.2 µM (inactive) | –
CCOC1(OCC)C2C=CC1C(COS(=O)(=O)c1ccc(C)cc1)C2COS(=O)(=O)c1ccc(C)cc1 (stereo not given) | 69.8 µM (inactive) | 11.9 µM (inactive) | 1.12 µM (inactive) | 34.6 µM (inactive) | 25.6 µM (inactive) | 45.8 µM (inactive) | – | 84.9 µM (inactive) | 24.1 µM (inactive) | 16.9 µM (inactive) | 41.4 µM (inactive) | 24.4 µM (inactive) | – | 40.9 µM (inactive) | 14.2 µM (inactive) | 18.1 µM (inactive) | 33.8 µM (inactive) | 24.3 µM (inactive) | 22.8 µM (inactive) | 39.9 µM (inactive)
CC[C@H](CCCC[C@H]1CC[C@@H]2CC(=O)C[C@H]12)OC | – | 53.6 µM (inactive) | 32.9 µM (inactive) | 93.8 µM (inactive) | 59 µM (inactive) | > 100 µM (inactive) | > 100 µM (inactive) | – | > 100 µM (inactive) | 24 µM (inactive) | > 100 µM (inactive) | > 100 µM (inactive) | 34 µM (inactive) | > 100 µM (inactive) | 58.9 µM (inactive) | 65.8 µM (inactive) | > 100 µM (inactive) | > 100 µM (inactive) | – | –
CCOC(=O)[C@H](C)OC(=O)[C@@](C)(NC(=O)c1ccccc1C(=O)OC)[C@@H]1NC=C(C(=O)OC)CS1 | > 100 µM (inactive) | 41.8 µM (inactive) | 20.4 µM (inactive) | > 100 µM (inactive) | > 100 µM (inactive) | > 100 µM (inactive) | > 100 µM (inactive) | > 100 µM (inactive) | > 100 µM (inactive) | – | – | 97.3 µM (inactive) | 38.1 µM (inactive) | > 100 µM (inactive) | 91.2 µM (inactive) | > 100 µM (inactive) | > 100 µM (inactive) | > 100 µM (inactive) | > 100 µM (inactive) | 97.9 µM (inactive)
CC1(C)N=C(N)N=C(N)N1c1ccc(OCC(=O)Nc2cccc(S(=O)(=O)F)c2)c(Cl)c1 | 8 µM (inactive) | 16.3 µM (inactive) | 2.85 µM (inactive) | 3.52 µM (inactive) | 5.16 µM (inactive) | 31 µM (inactive) | 35.8 µM (inactive) | > 70 µM (inactive) | 15.9 µM (inactive) | 3.75 µM (inactive) | 13.2 µM (inactive) | – | > 33.3 µM (inactive) | 5.82 µM (inactive) | 27.2 µM (inactive) | 51.8 µM (inactive) | 7.8 µM (inactive) | 1.8 µM (inactive) | 78.5 µM (inactive) | –
OC1(c2ccccc2)CCN(Cc2c[nH]c3ccccc23)CC1 | > 100 µM (inactive) | 39.2 µM (inactive) | – | > 100 µM (inactive) | 42.9 µM (inactive) | > 100 µM (inactive) | > 100 µM (inactive) | 20.7 µM (inactive) | 17.5 µM (inactive) | 48.2 µM (inactive) | 79.3 µM (inactive) | 23.2 µM (inactive) | 39.5 µM (inactive) | > 100 µM (inactive) | 35.6 µM (inactive) | > 100 µM (inactive) | > 100 µM (inactive) | > 100 µM (inactive) | 31 µM (inactive) | 63.2 µM (inactive)
CC(=O)C1=C(C)N2C(=NC3=C(CCc4ccccc43)C2c2ccc(Cl)cc2)S1 (stereo not given) | > 100 µM (inactive) | 3.8 µM (inactive) | – | 53.8 µM (inactive) | 7.45 µM (inactive) | > 100 µM (inactive) | > 100 µM (inactive) | > 100 µM (inactive) | 21.4 µM (inactive) | 4.42 µM (inactive) | > 92.9 µM (inactive) | 48.5 µM (inactive) | 2.12 µM (inactive) | > 100 µM (inactive) | 5.53 µM (inactive) | 6.53 µM (inactive) | > 100 µM (inactive) | > 100 µM (inactive) | > 53.7 µM (inactive) | 5.56 µM (inactive)
Cc1ccc2c(c1)C(=O)/C(=C\c1ccccc1)CCS2(=O)=O | 14.2 µM (inactive) | 4.54 µM (inactive) | 2.92 µM (inactive) | 12.9 µM (inactive) | 9.06 µM (inactive) | 20.9 µM (inactive) | 17.2 µM (inactive) | 18.5 µM (inactive) | 17.4 µM (inactive) | 0.303 µM (active) | 10.3 µM (inactive) | 10.7 µM (inactive) | – | 11.6 µM (inactive) | 11.7 µM (inactive) | 4.36 µM (inactive) | 8.51 µM (inactive) | 15.7 µM (inactive) | 10.8 µM (inactive) | –
CCCCCCCCCCCCCCCCP(=O)(O)OP(=O)(O)OCC1OC(n2cnc3c(N)ncnc32)C(O)C1O (stereo not given) | 20.8 µM (inactive) | 17.3 µM (inactive) | 45.5 µM (inactive) | 33.5 µM (inactive) | 20.3 µM (inactive) | 19.5 µM (inactive) | 28.7 µM (inactive) | 35.7 µM (inactive) | 32.7 µM (inactive) | 35.4 µM (inactive) | 19.1 µM (inactive) | 22.2 µM (inactive) | – | 22 µM (inactive) | 82.6 µM (inactive) | 22.1 µM (inactive) | 20 µM (inactive) | 20.9 µM (inactive) | 15.8 µM (inactive) | –
COC(=O)C1=C(O)C(C(=O)OC)[C@@]2(O)[C@@H](C(=O)OC)C(c3ccc(OC(=O)/C=C/c4ccccc4)cc3)C[C@@H]1[C@@H]2C(=O)OC (stereo not given in full) | 7.11 µM (inactive) | 2.61 µM (inactive) | 3.02 µM (inactive) | 12.6 µM (inactive) | 3.66 µM (inactive) | 23.8 µM (inactive) | 7.36 µM (inactive) | 20 µM (inactive) | 10.1 µM (inactive) | 4.55 µM (inactive) | 3.43 µM (inactive) | 25.1 µM (inactive) | – | 8.69 µM (inactive) | 8.49 µM (inactive) | 5.3 µM (inactive) | 20.6 µM (inactive) | 22.6 µM (inactive) | 10.6 µM (inactive) | 3.06 µM (inactive)
C=C(CN(C)C)C(=O)c1ccccc1[N+](=O)[O-] | 17.7 µM (inactive) | – | 3.38 µM (inactive) | > 57.8 µM (inactive) | 19.2 µM (inactive) | 38.7 µM (inactive) | 14.2 µM (inactive) | 17.6 µM (inactive) | 7.8 µM (inactive) | 2.79 µM (inactive) | 39.7 µM (inactive) | 7.76 µM (inactive) | – | 20.2 µM (inactive) | 3.83 µM (inactive) | 3.56 µM (inactive) | > 56.4 µM (inactive) | 30.1 µM (inactive) | 17.7 µM (inactive) | 16.1 µM (inactive)
COc1c2occc2cc2ccc(=O)oc12 [METHOXSALEN] | > 100 µM (inactive) | > 100 µM (inactive) | 90.6 µM (inactive) | > 100 µM (inactive) | – | > 100 µM (inactive) | > 100 µM (inactive) | > 100 µM (inactive) | > 100 µM (inactive) | 90.2 µM (inactive) | > 100 µM (inactive) | – | > 100 µM (inactive) | – | > 100 µM (inactive) | – | > 100 µM (inactive) | – | > 100 µM (inactive) | –
O=c1ccc2ccc(O)cc2o1 [UMBELLIFERONE] | > 100 µM (inactive) | > 100 µM (inactive) | – | > 100 µM (inactive) | > 100 µM (inactive) | > 100 µM (inactive) | > 100 µM (inactive) | > 100 µM (inactive) | > 100 µM (inactive) | > 100 µM (inactive) | > 100 µM (inactive) | > 100 µM (inactive) | > 100 µM (inactive) | > 100 µM (inactive) | > 100 µM (inactive) | > 100 µM (inactive) | > 100 µM (inactive) | > 100 µM (inactive) | > 100 µM (inactive) | > 100 µM (inactive)
